By Ki is commonly meant the equilibrium dissociation constant of an inhibitor or competing ligand from its target.

This is an account of results in BindingDB's records for doi:10.1006/frne.1999.0183 (Royal Victoria Hospital, 1999).

Starred links: 1 amine or outer side, 2 acyl side, 3 side chain; linkers in the order of their positions; H or OH if unused. Non-standard residues stand in square brackets, D forms with d. Residues, ends and D or L forms follow the SMILES beside them. *: point of attachment. pNA = O=[N+]([O-])c1ccc(N*)cc1; Nle = CCCC[CH](N)C(=O)O; CO = O=C([*:1])[*:2]

The target in experiment [1] is Somatostatin receptor type 5 (Homo sapiens, UniProt P35346).
Somatostatin receptor type 5, sequence (P35346 whole entry): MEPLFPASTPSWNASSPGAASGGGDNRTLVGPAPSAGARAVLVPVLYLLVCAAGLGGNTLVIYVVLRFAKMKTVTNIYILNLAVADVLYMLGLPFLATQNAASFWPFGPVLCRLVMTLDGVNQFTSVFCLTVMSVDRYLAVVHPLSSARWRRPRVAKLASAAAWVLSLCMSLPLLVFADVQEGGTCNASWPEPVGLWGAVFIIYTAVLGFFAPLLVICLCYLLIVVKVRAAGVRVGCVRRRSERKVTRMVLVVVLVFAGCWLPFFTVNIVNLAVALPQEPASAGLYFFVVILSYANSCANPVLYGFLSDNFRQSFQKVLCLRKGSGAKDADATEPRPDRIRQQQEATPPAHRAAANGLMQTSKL
Experiment [2] addresses Somatostatin receptor type 3 (Homo sapiens, UniProt P32745).
In experiment [3] the target is Somatostatin receptor type 1 (Homo sapiens, UniProt P30872).
Somatostatin receptor type 1, sequence (P30872 whole entry): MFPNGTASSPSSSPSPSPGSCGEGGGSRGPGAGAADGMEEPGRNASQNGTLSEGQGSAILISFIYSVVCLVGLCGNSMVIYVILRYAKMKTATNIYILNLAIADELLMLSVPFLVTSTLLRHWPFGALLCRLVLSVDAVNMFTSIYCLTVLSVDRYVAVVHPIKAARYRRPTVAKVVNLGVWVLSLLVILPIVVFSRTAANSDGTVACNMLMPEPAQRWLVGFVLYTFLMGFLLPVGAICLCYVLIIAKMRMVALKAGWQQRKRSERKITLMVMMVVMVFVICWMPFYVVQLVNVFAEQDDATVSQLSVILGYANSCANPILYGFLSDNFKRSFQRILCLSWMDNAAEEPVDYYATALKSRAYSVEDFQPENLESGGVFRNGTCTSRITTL
Experiment [4] has as its target Somatostatin receptor type 2 (Homo sapiens, UniProt P30874).
The target of experiment [5] is Somatostatin receptor type 4 (Homo sapiens, UniProt P31391).
Somatostatin receptor type 4, sequence (P31391 whole entry): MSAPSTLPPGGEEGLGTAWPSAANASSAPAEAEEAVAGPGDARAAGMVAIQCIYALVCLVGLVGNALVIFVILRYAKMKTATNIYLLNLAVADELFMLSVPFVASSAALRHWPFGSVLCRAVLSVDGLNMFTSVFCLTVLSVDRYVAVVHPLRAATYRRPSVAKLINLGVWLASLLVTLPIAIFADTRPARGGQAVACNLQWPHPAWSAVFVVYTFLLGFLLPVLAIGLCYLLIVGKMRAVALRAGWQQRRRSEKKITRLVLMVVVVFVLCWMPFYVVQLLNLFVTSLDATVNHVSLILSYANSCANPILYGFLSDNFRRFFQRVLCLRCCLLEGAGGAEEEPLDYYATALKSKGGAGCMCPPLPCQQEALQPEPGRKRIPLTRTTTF

Somatostatin receptor type 2, sequence (P30874 whole entry): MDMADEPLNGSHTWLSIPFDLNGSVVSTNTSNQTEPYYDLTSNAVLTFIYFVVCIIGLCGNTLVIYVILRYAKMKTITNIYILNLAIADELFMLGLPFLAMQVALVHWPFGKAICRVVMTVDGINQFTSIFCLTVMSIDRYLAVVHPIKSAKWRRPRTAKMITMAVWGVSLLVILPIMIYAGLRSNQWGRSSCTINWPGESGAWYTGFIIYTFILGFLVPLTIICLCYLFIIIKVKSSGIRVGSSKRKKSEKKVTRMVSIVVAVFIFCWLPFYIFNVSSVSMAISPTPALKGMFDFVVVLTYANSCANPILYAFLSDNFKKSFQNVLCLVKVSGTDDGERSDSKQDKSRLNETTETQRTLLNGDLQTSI
Somatostatin receptor type 3, sequence (P32745 whole entry): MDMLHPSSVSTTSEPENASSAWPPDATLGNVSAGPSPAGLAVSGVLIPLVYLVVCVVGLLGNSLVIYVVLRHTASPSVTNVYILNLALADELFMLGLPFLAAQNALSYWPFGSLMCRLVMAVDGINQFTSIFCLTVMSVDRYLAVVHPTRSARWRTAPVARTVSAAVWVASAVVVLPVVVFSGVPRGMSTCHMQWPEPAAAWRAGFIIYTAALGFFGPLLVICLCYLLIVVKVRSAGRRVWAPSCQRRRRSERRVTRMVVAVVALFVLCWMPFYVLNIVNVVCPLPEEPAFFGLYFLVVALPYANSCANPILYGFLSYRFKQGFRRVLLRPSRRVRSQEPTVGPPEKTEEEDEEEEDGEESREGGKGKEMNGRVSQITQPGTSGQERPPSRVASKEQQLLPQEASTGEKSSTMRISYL

Turning to `C[C@H](N)COC(=O)[C@H](CCCCN)NC(=O)Cc1c(-c2ccc3ccccc3c2)[nH]c2c1ccc1ccccc12`, the inhibition constant Ki in experiment [1] came out at 0.4 nM; in experiment [2], 64 nM; in experiment [3], 3.3 nM; in experiment [4], 52 nM; in experiment [5], 82 nM.

As to `CC(c1c[nH]c2ccccc12)C(NC(=O)N1CCC(n2c(=O)[nH]c3ccccc32)CC1)C(=O)NCC1CCCC(CN)C1` (stereo unspecified) [CAS_5311372], the inhibition constant Ki in experiment [1] is 4260 nM; in experiment [2], 729 nM; in experiment [3], 2760 nM; in experiment [4] it was 0.05 nM; in experiment [5], 310 nM.

For `CCCCC(NC(=O)NC(Cc1ccccc1)C(=O)Nc1ccc([N+](=O)[O-])cc1)C(=O)NC(CCCCN)C(=O)OC` (stereo unspecified) [CAS_5311373] ({pNA-Phe-CO}-[Nle]-Lys-OMe; configuration not given here), the Ki in experiment [1] was 1200 nM; in experiment [2], 24 nM; in experiment [3], 1260 nM; in experiment [4], above 10000 nM; in experiment [5], 8650 nM.

Turning to `CC(C)NCc1ccc(C[C@@H]2NC(=O)[C@@H](Cc3c[nH]c4ccccc34)NC(=O)[C@H](Cc3ccccc3)NC(=O)[C@H](Cc3ccccc3)NC(=O)[C@H](CCCCN)NC(=O)[C@@H](N)CSSC[C@@H](C(=O)O)NC(=O)[C@H](CO)NC(=O)[C@H]([C@@H](C)O)NC(=O)[C@H](Cc3ccccc3)NC(=O)[C@H]([C@@H](C)O)NC2=O)cc1` [CH-275] (HELM PEPTIDE1{C.K.F.F.[dW].[CC(C)NCc1ccc(C[C@H](N[*:1])C(=O)[*:2])cc1].T.F.T.S.C}$PEPTIDE1,PEPTIDE1,1:R3-11:R3$$$V2.0), the Ki is 1000 nM in experiment [1], 1000 nM in experiment [2], 3.2 nM in experiment [3] and 4.3 nM in experiment [5].

For the compound `CSCC[C@H](NC(=O)[C@H](CCCN=C(N)N)NC(=O)[C@@H](N)CC(=O)O)C(=O)N1CCC[C@H]1C(=O)N[C@H]1CSSC[C@@H](C(=O)N[C@@H](CCCCN)C(=O)O)NC(=O)[C@H](CO)NC(=O)[C@H](CO)NC(=O)[C@H](Cc2ccccc2)NC(=O)[C@H]([C@@H](C)O)NC(=O)[C@H](CCCCN)NC(=O)[C@H](Cc2c[nH]c3ccccc23)NC(=O)[C@H](Cc2ccccc2)NC(=O)[C@H](Cc2ccccc2)NC(=O)[C@H](CC(N)=O)NC(=O)[C@H](CCCN=C(N)N)NC1=O` [Cortistatin], the Ki in experiment [1] amounted to 0.4 nM; in experiment [2], 0.6 nM; in experiment [3], 7 nM; in experiment [4], 0.6 nM; in experiment [5] it was 0.5 nM.

On to `COC(=O)C(CCCNC(=N)N)NC(=O)CCCc1c(-c2ccccc2)[nH]c2c(F)cc(F)cc12` [L-803,087], for which the Ki is 3880 nM in experiment [1]; 1280 nM in experiment [2]; 199 nM in experiment [3]; 4720 nM in experiment [4]; 0.7 nM in experiment [5].

With `CC(CCN)CC(C)(C)CNC(=O)[C@@H](Cc1cccc2ccccc12)NC(=O)N(CCc1ccccc1)CCc1ccccn1` (stereo partly drawn) [L-797591], the inhibition constant (Ki) was 3600 nM in experiment [1]; 2240 nM in experiment [2]; 1.4 nM in experiment [3]; 1870 nM in experiment [4]; 170 nM in experiment [5].

Take `CC(C)[C@@H]1NC(=O)[C@H](CCCCN)NC(=O)[C@@H](Cc2c[nH]c3ccccc23)NC(=O)[C@H](Cc2ccc(O)cc2)NC(=O)[C@H](C)N(C)C(=O)[C@H](Cc2ccccc2)NC1=O` [seglitide]: the Ki turned out to be 27 nM in experiment [2] and 1000 nM in experiment [3].
